Reference: patent US20080287511A1, “Anthelmintic Imidazol-Thiazole Derivates” (priority 2005, published 2008)

What was measured:
[1] = test system: PolyRes strain of Haemonchus contortus (resistant against levamisole, mebendazole, ivermectin and closantel); assay: Efficacy study of anthelmintics in in vivo H. contortus/jirds model; design: species or system Haemonchus contortus in jirds (Meriones unguiculatus); conditions: jirds, oral; for Med. W.b. (median worm burden): treated day 11, necropsy day 14; for % Efficacy: reduction of mean worm count vs control group; for anthelmintic efficacy compared with art known compounds (A) and (B): multi-resistant strain of Haemonchus contortus, comparison in words
Experimental: The anthelmintic efficacy of the compounds of the present invention was evaluated in an in vivo model using unmedicated jirds (Meriones unguiculatus), inoculated three times with approximately 300 exsheated infective larvae of Haemonchus contortus (multiresistant strain), treated orally with a test compound 11 days after their first infection with H. contortus larvae, and necropsied on day 14 to count the number of recovered H. contortus worms. The anthelmintic efficacy of the art known compounds (A) and (B) was also evaluated using the same model.
Female CRW jirds aged between 28 and 35 days and weighing 30-35 g (Charles River, Sulzfeld, Germany) were used. Three jirds each were assigned randomly upon arrival to translucent polysulfone individually ventilated cages (48×37.5×21 cm) containing wood shavings. Commercial rodent chow and water were given ad libitum. Following a four-day acclimation period, the jirds were artificially infected.
A PolyRes strain of Haemonchus contortus (resistant against levamisole, mebendazole, ivermectin and closantel) was used. This strain has been maintained in artificially infected male donor lambs. Individual feces containing Haemonchus eggs were collected in fecal bags. The fecal pellets were broken, mixed with charcoal, moistened and put in an incubator for embryonation at 28° C. and 95% relative humidity. Seven days later this mixture was placed in Baermann funnels and third stage ensheathed larvae were collected after 12 hours. These larvae were rinsed with water for cleaning and disinfected with a 2% formalin solution. Such larvae can be used immediately for artificial infection or can be stored in the fridge at about 8° C. for a maximum duration of 6 months. Infective larvae (<6 months old) were exsheathed by rinsing with a 3.3 vol % commercial sodium hypochlorite solution during 10 minutes, filtered through a Buchner funnel, rinsed with water, concentrated in a Baermann funnel, and collected after 2 hours. Exsheathed larvae prepared in this manner can be used for subsequent infection of jirds or laid in a supply for extended periods by cooling in the gas over liquid nitrogen during 1 hour and storing in liquid nitrogen at −196° C.
All jirds were inoculated orally with approximately 300 exsheathed infective larvae of H. contortus per dose on three consecutive days. Inoculations were administered using a blunted 18 G dosing needle fitted to a 1 ml syringe.
Eleven days after their first infection jirds were treated with test compounds, suspended or dissolved in 0.4 ml DMSO, and the dose to be tested was administered in a volume of 0.1 ml/50 g bodyweight via a blunted 18 G dosing needle fitted to a 1 ml syringe. Control animals, included in each experiment, remained untreated. Levamisole hydrochloride, mebendazole, ivermectin and closantel were used in different dosage titration experiments to validate the model.
All jirds were starved 20 hours before necropsy and killed on day 14 past first infection by CO2 inhalation. For worm recovery their stomachs were removed, opened longitudinally, and incubated in a beaker with 20 ml digestion fluid (10 g pepsin+30 ml concentrated hydrochloric acid) at 37° C. for 3 hours. Following digestion, the stomach content was passed through a tea-strainer, the passage fluid was catched in a sieve (32 μm) and the worms were recovered with tap water. The beakers were stored in the fridge for subsequent counting.
The content of each beaker was mixed, poured over in a 6-well plate in 6 aliquots, and the worms were counted under an inverted microscope.

Structure (SMILES) | melting point [°C] | Med. W.b. (median worm burden) ([1]; dose 2.5 mpk) | % Efficacy ([1]; dose 2.5 mpk) [%] | Med. W.b. (median worm burden) ([1]; dose 5 mpk) | % Efficacy ([1]; dose 5 mpk) [%] | Med. W.b. (median worm burden) ([1]; dose 10 mpk) | % Efficacy ([1]; dose 10 mpk) [%] | anthelmintic efficacy compared with art known compounds (A) and (B) [1]
O=C(Nc1cccc([C@H]2CN3CCSC3=N2)c1)[C@H]1CCCO1 [Co. No. 1, (2R)-tetrahydro-furan-2-carboxylic acid (6S)-[3-(2,3,5,6-tetrahydro-imidazo[2,1-b]thiazol-6-yl)-phenyl]-amide] | 42 to 57 | 36.0 | 65.9 | 6.0 | 79.3 | 0.0 | 100.0 | better demonstrated anthelmintic efficacy than the art known compounds (A) and (B)
O=C(Nc1cccc([C@H]2CN3CCSC3=N2)c1)C1CCCO1 (stereo partly drawn) [Co. No. 4] |  |  |  | 5.0 | 68.8 | 3.0 | 85.0 | better demonstrated anthelmintic efficacy than the art known compounds (A) and (B)
O=C(Nc1cccc([C@H]2CN3CCSC3=N2)c1)c1ccco1 [Co. No. A, furan-2-carboxylic acid [3-(2,3,5,6-tetrahydro-imidazo[2,1-b]thiazol-6-yl)-phenyl]-amide, reference compound] |  |  |  | 11.0 | 35.3 | 7.0 | 65.0 | 
c1cc(NCC2CCCO2)cc([C@H]2CN3CCSC3=N2)c1 (stereo partly drawn) [Co. No. B, (tetrahydrofuran-2-ylmethyl)-[3-(2,3,5,6-tetrahydro-imidazo[2,1-b]thiazol-6-yl)-phenyl]-amine, reference compound] |  |  |  | 10.0 | 55.6 | 14.0 | 60.6 | 
